Results from PMC7914897, “Cytotoxic Potential of a-Azepano- and 3-Amino-3,4-SeCo-Triterpenoids” (International Journal of Molecular Sciences, 2021).
Like-named read-outs stand apart in the source and are kept apart here.

Tests used:
SR (Leukemia) = assay: NCI-60 screen (SRB, 48 h); format: cell-based
MDA-MB-435 (Melanoma) = assay: NCI-60 screen (SRB, 48 h); format: cell-based
OVCAR-4 (Ovarian cancer) = assay: NCI-60 screen (SRB, 48 h); format: cell-based; conditions: Homo sapiens; for IC (TGI): OVCAR-4, 48 h
CNS cancer subpanel = assay: NCI-60 screen, subpanel; conditions: Homo sapiens; for IC (TGI): 48 h, read-out: TGI MG_MID; for GI50: read-out: GI50 MG_MID; for CC50: read-out: LC50 MG_MID
Prostate cancer subpanel = assay: NCI-60 screen, subpanel; conditions: Homo sapiens; for IC (TGI): 48 h, read-out: TGI MG_MID; for GI50: read-out: GI50 MG_MID; for CC50: read-out: LC50 MG_MID
K-562 (Leukemia) = assay: NCI-60 screen (SRB, 48 h); conditions: Homo sapiens; for GI50: K562; for IC (TGI): K562, 48 h, read-out: TGI; for CC50: K562, read-out: LC50
RPMI-8226 (Leukemia) = assay: NCI-60 screen (SRB, 48 h); conditions: Homo sapiens; for GI50: RPMI-8226; for IC (TGI): RPMI-8226, 48 h, read-out: TGI; for CC50: RPMI-8226, read-out: LC50
EKVX (NSC lung cancer) = assay: NCI-60 screen (SRB, 48 h); conditions: Homo sapiens; for IC (TGI): 48 h, read-out: TGI; for CC50: read-out: LC50
[1] = system: NCI-H522 (NSC lung cancer); assay: NCI-60 screen (SRB, 48 h); conditions: Homo sapiens; for GI50: NCI-H522; for IC (TGI): NCI-H522, 48 h, read-out: TGI
HT29 (Colon cancer) = assay: NCI-60 screen (SRB, 48 h); conditions: Homo sapiens; for GI50: HT-29; for IC (TGI): HT-29, 48 h, read-out: TGI
KM12 (Colon cancer) = assay: NCI-60 screen (SRB, 48 h); conditions: Homo sapiens; for GI50: KM12; for IC (TGI): KM12, 48 h, read-out: TGI
SF-268 (CNS cancer) = assay: NCI-60 screen (SRB, 48 h); conditions: Homo sapiens; for GI50: SF-268; for IC (TGI): SF-268, 48 h, read-out: TGI; for CC50: SF-268, read-out: LC50
SF-539 (CNS cancer) = assay: NCI-60 screen (SRB, 48 h); conditions: Homo sapiens; for GI50: SF-539; for IC (TGI): SF-539, 48 h, read-out: TGI; for CC50: SF-539, read-out: LC50
MALME-3M (Melanoma) = assay: NCI-60 screen (SRB, 48 h); conditions: Homo sapiens; for IC (TGI): 48 h, read-out: TGI; for CC50: read-out: LC50
SK-MEL-28 (Melanoma) = assay: NCI-60 screen (SRB, 48 h); conditions: Homo sapiens; for GI50: SK-MEL-28; for IC (TGI): SK-MEL-28, 48 h, read-out: TGI; for CC50: SK-MEL-28, read-out: LC50
SK-MEL-5 (Melanoma) = assay: NCI-60 screen (SRB, 48 h); conditions: for GI50 / IC (TGI) / CC50: Homo sapiens; for GI50: SK-MEL-5; for IC (TGI): SK-MEL-5, 48 h, read-out: TGI; for CC50: SK-MEL-5, read-out: LC50
UACC-257 (Melanoma) = assay: NCI-60 screen (SRB, 48 h); conditions: Homo sapiens; for GI50: UACC-257; for IC (TGI): UACC-257, 48 h, read-out: TGI; for CC50: UACC-257, read-out: LC50
OVCAR-8 (Ovarian cancer) = assay: NCI-60 screen (SRB, 48 h); conditions: Homo sapiens; for GI50: OVCAR-8; for IC (TGI): OVCAR-8, 48 h, read-out: TGI
[2] = system: NCI/ADR-RES (Ovarian cancer); assay: NCI-60 screen (SRB, 48 h); conditions: Homo sapiens; for IC (TGI): 48 h, read-out: TGI
786-0 (Renal cancer) = assay: NCI-60 screen (SRB, 48 h); conditions: for GI50 / IC (TGI) / CC50: Homo sapiens; for GI50: 786-0; for IC (TGI): 786-0, 48 h, read-out: TGI; for CC50: 786-0, read-out: LC50
HS 578T (Breast cancer) = assay: NCI-60 screen (SRB, 48 h); conditions: Homo sapiens; for IC (TGI): 48 h, read-out: TGI; for CC50: read-out: LC50
T-47D (Breast cancer) = assay: NCI-60 screen (SRB, 48 h); conditions: Homo sapiens, T47D; for IC (TGI): 48 h, read-out: TGI; for CC50: read-out: LC50

Compound: C=C(C)C1CCC2(CO)CCC3(C)C(CCC4C5(C)CCCNC(C)(C)C5CCC43C)C12 (stereo not drawn) [Compound 1, Azepanobetulin]
- TGI (SR (Leukemia)): 3.79 µM
- GI50 (SR (Leukemia); Homo sapiens): 1590 nM
- IC (TGI) (MDA-MB-435 (Melanoma); Homo sapiens, MDA-MB-435, 48 h; read-out: TGI): 2.95 µM
- GI50 (MDA-MB-435 (Melanoma); Homo sapiens, MDA-MB-435; read-out: GI50): 1560 nM
- IC (TGI) (OVCAR-4 (Ovarian cancer)): 2.81 µM
- GI50 (OVCAR-4 (Ovarian cancer); OVCAR-4, read-out: GI50): 1450 nM
- IC (TGI) (CNS cancer subpanel): 3.15 µM
- GI50 (CNS cancer subpanel): 1650 nM
- CC50 (CNS cancer subpanel): 5.98 µM
- IC (TGI) (Prostate cancer subpanel): 2.98 µM
- GI50 (Prostate cancer subpanel): 2980 nM
- CC50 (Prostate cancer subpanel): 5.66 µM
- GI50 (K-562 (Leukemia)): 1080 nM
- IC (TGI) (K-562 (Leukemia)): 3.79 µM
- CC50 (K-562 (Leukemia)): > 100 µM
- GI50 (RPMI-8226 (Leukemia)): 1940 nM
- IC (TGI) (RPMI-8226 (Leukemia)): 4.51 µM
- CC50 (RPMI-8226 (Leukemia)): > 100 µM
- GI50 (EKVX (NSC lung cancer)): 1550 nM
- IC (TGI) (EKVX (NSC lung cancer)): 3.03 µM
- CC50 (EKVX (NSC lung cancer)): 5.92 µM
- GI50 [1]: 1650 nM
- IC (TGI) [1]: 3.42 µM
- GI50 (HT29 (Colon cancer)): 1270 nM
- IC (TGI) (HT29 (Colon cancer)): 2.85 µM
- GI50 (KM12 (Colon cancer)): 1730 nM
- IC (TGI) (KM12 (Colon cancer)): 3.24 µM
- CC50 (KM12 (Colon cancer); KM12, read-out: LC50): 6.09 µM
- GI50 (SF-268 (CNS cancer)): 1740 nM
- IC (TGI) (SF-268 (CNS cancer)): 3.54 µM
- CC50 (SF-268 (CNS cancer)): 7.19 µM
- GI50 (SF-539 (CNS cancer)): 1580 nM
- IC (TGI) (SF-539 (CNS cancer)): 3.01 µM
- CC50 (SF-539 (CNS cancer)): 5.72 µM
- GI50 (MALME-3M (Melanoma)): 1500 nM
- IC (TGI) (MALME-3M (Melanoma)): 3.05 µM
- CC50 (MALME-3M (Melanoma)): 6.18 µM
- GI50 (SK-MEL-28 (Melanoma)): 1620 nM
- IC (TGI) (SK-MEL-28 (Melanoma)): 3.15 µM
- CC50 (SK-MEL-28 (Melanoma)): 6.13 µM
- GI50 (SK-MEL-5 (Melanoma)): 1380 nM
- IC (TGI) (SK-MEL-5 (Melanoma)): 2.7 µM
- CC50 (SK-MEL-5 (Melanoma)): 5.28 µM
- Growth % of the Most Sensitive Cell Lines (SK-MEL-5 (Melanoma); SK-MEL-5, 1 dose 10 µM): −82.49%
- GI50 (UACC-257 (Melanoma)): 1950 nM
- IC (TGI) (UACC-257 (Melanoma)): 3.73 µM
- CC50 (UACC-257 (Melanoma)): 7.14 µM
- GI50 (OVCAR-8 (Ovarian cancer)): 1830 nM
- IC (TGI) (OVCAR-8 (Ovarian cancer)): 3.51 µM
- CC50 (OVCAR-8 (Ovarian cancer); OVCAR-8, read-out: LC50): 6.73 µM
- GI50 [2]: 1630 nM
- IC (TGI) [2]: 3.18 µM
- CC50 ([2]; read-out: LC50): 6.18 µM
- GI50 (786-0 (Renal cancer)): 1620 nM
- IC (TGI) (786-0 (Renal cancer)): 3.16 µM
- CC50 (786-0 (Renal cancer)): 6.19 µM
- GI50 (HS 578T (Breast cancer)): 1990 nM
- IC (TGI) (HS 578T (Breast cancer)): 4.79 µM
- CC50 (HS 578T (Breast cancer)): 31 µM
- GI50 (T-47D (Breast cancer)): 1730 nM
- IC (TGI) (T-47D (Breast cancer)): 3.71 µM
- CC50 (T-47D (Breast cancer)): 7.96 µM

Compound: CC1(C)CC[C@]23CC[C@]4(C)[C@H](CC[C@@H]5[C@@]6(C)CCCNC(C)(C)[C@@H]6CC[C@]54C)[C@H]2[C@H]1OC3 [Compound 7, Azepanoallobetulin]
- TGI (SR (Leukemia)): 4.12 µM
- GI50 (SR (Leukemia); Homo sapiens): 1490 nM
- CC50 (SR (Leukemia); Homo sapiens, read-out: LC50 (the source's name)): > 100 µM
- GI50 (MDA-MB-435 (Melanoma); Homo sapiens, MDA-MB-435): 1650 nM
- IC (TGI) (MDA-MB-435 (Melanoma); Homo sapiens, MDA-MB-435, 48 h, read-out: TGI): 3.02 µM
- CC50 (MDA-MB-435 (Melanoma); Homo sapiens, MDA-MB-435; read-out: LC50 (the source's name)): 5.55 µM
- GI50 (OVCAR-4 (Ovarian cancer); OVCAR-4): 1650 nM
- IC (TGI) (OVCAR-4 (Ovarian cancer)): 3.12 µM
- CC50 (OVCAR-4 (Ovarian cancer); OVCAR-4, read-out: LC50 (the source's name)): 5.88 µM
- IC (TGI) (CNS cancer subpanel): 3.51 µM
- GI50 (CNS cancer subpanel): 1580 nM
- CC50 (CNS cancer subpanel): 10.2 µM
- IC (TGI) (Prostate cancer subpanel): 3.2 µM
- GI50 (Prostate cancer subpanel): 1670 nM
- CC50 (Prostate cancer subpanel): 6.12 µM
- GI50 (K-562 (Leukemia)): 1960 nM
- IC (TGI) (K-562 (Leukemia)): 7 µM
- CC50 (K-562 (Leukemia)): > 100 µM
- GI50 (RPMI-8226 (Leukemia)): 1940 nM
- IC (TGI) (RPMI-8226 (Leukemia)): 4.58 µM
- CC50 (RPMI-8226 (Leukemia)): 96.8 µM
- GI50 (EKVX (NSC lung cancer)): 1680 nM
- IC (TGI) (EKVX (NSC lung cancer)): 3.37 µM
- CC50 (EKVX (NSC lung cancer)): 6.77 µM
- GI50 [1]: 1900 nM
- IC (TGI) [1]: 3.77 µM
- CC50 ([1]; NCI-H522, read-out: LC50): 7.49 µM
- GI50 (HT29 (Colon cancer)): 1780 nM
- IC (TGI) (HT29 (Colon cancer)): 3.63 µM
- CC50 (HT29 (Colon cancer); HT-29, read-out: LC50): 7.42 µM
- GI50 (KM12 (Colon cancer)): 1860 nM
- IC (TGI) (KM12 (Colon cancer)): 3.44 µM
- GI50 (SF-268 (CNS cancer)): 2040 nM
- IC (TGI) (SF-268 (CNS cancer)): 5.31 µM
- CC50 (SF-268 (CNS cancer)): 31.5 µM
- GI50 (SF-539 (CNS cancer)): 1640 nM
- IC (TGI) (SF-539 (CNS cancer)): 3.07 µM
- CC50 (SF-539 (CNS cancer)): 5.78 µM
- GI50 (MALME-3M (Melanoma)): 1790 nM
- IC (TGI) (MALME-3M (Melanoma)): 3.47 µM
- CC50 (MALME-3M (Melanoma)): 6.72 µM
- GI50 (SK-MEL-28 (Melanoma)): 1660 nM
- IC (TGI) (SK-MEL-28 (Melanoma)): 3.18 µM
- CC50 (SK-MEL-28 (Melanoma)): 6.07 µM
- GI50 (SK-MEL-5 (Melanoma)): 1690 nM
- IC (TGI) (SK-MEL-5 (Melanoma)): 3.06 µM
- CC50 (SK-MEL-5 (Melanoma)): 5.53 µM
- GI50 (UACC-257 (Melanoma)): 1920 nM
- IC (TGI) (UACC-257 (Melanoma)): 3.89 µM
- CC50 (UACC-257 (Melanoma)): 7.77 µM
- GI50 (OVCAR-8 (Ovarian cancer)): 1870 nM
- IC (TGI) (OVCAR-8 (Ovarian cancer)): 3.66 µM
- GI50 [2]: 1780 nM
- IC (TGI) [2]: 3.59 µM
- Growth % of the Most Sensitive Cell Lines (786-0 (Renal cancer); 786-0, 1 dose 10 µM): −96.23%
- GI50 (786-0 (Renal cancer)): 1660 nM
- IC (TGI) (786-0 (Renal cancer)): 3.21 µM
- CC50 (786-0 (Renal cancer)): 6.18 µM
- GI50 (HS 578T (Breast cancer)): 1960 nM
- IC (TGI) (HS 578T (Breast cancer)): 4.69 µM
- CC50 (HS 578T (Breast cancer)): 2.44 µM
- GI50 (T-47D (Breast cancer)): 1710 nM
- IC (TGI) (T-47D (Breast cancer)): 3.69 µM
- CC50 (T-47D (Breast cancer)): 7.99 µM
